Data on ten compounds can be found in patent publication US8642592B2, “Oxo-heterocyclically substituted alkyl carboxylic acids and use thereof” (Bayer Intellectual Property GmbH, priority 2009, dated 2014).

pEC50, pIC50: −log10 of the molar value.

The subject of one experiment is saphenous artery. In words: Vasorelaxant effect in vitro (phenylephrine-contracted artery rings). Further details: species or system Rabbits. The conditions noted are these: Oryctolagus cuniculus; concentration reducing phenylephrine-induced contraction of rabbit saphenous artery rings by 50%. The method, then:
Rabbits are anesthetized and sacrificed by intravenous injection of thiopental sodium (about 50 mg/kg) and exsanguinated. The saphenous artery is removed and divided into rings 3 mm wide. The rings are mounted singly on in each case a pair of triangular hooks open at the end and made of 0.3 mm-thick special wire (Remanium®). Each ring is placed under an initial tension in 5 ml organ baths with Krebs-Henseleit solution which is at 37° C., is gassed with carbogen and has the following composition: NaCl 119 mM; KCl 4.8 mM; CaCl2×2 H2O 1 mM; MgSO4×7 H2O 1.4 mM; KH2PO4 1.2 mM; NaHCO3 25 mM; glucose 10 mM; bovine serum albumin 0.001%. The force of contraction is detected with Statham UC2 cells, amplified and digitized via A/D converters (DAS-1802 HC, Keithley Instruments, Munich) and recorded in parallel on chart recorders. Contractions are induced by addition of phenylephrine.
After several (generally 4) control cycles, the substance to be investigated is added in each further run in increasing dosage, and the level of the contraction achieved under the influence of the test substance is compared with the level of the contraction reached in the last preceding run. The concentration necessary to reduce the contraction reached in the preceding control by 50% is calculated from this (IC50). The standard application volume is 5 μl. The proportion of DMSO in the bath solution corresponds to 0.1%.

The next experiment addresses T1, sGC (Rattus norvegicus, UniProt P20595).
T1 construct: expressed in transfected cells; host or cells: CHO reporter cell line
T1 sequence (P20595 1-619): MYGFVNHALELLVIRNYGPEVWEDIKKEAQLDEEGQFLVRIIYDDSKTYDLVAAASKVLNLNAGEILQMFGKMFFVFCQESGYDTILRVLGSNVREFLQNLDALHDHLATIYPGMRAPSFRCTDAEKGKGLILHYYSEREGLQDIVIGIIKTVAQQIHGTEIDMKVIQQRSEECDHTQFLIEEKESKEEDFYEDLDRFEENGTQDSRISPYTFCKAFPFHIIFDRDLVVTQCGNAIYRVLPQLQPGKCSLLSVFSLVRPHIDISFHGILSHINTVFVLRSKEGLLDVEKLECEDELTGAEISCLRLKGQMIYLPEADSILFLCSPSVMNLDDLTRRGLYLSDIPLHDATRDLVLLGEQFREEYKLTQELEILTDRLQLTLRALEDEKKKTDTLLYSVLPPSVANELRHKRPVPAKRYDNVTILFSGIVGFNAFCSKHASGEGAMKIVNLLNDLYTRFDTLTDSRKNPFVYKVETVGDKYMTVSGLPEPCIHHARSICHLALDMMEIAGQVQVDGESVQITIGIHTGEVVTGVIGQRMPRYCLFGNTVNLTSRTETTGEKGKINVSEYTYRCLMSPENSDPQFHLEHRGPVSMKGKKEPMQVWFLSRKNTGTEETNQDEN
T1 sequence (P19686 1-690 partner): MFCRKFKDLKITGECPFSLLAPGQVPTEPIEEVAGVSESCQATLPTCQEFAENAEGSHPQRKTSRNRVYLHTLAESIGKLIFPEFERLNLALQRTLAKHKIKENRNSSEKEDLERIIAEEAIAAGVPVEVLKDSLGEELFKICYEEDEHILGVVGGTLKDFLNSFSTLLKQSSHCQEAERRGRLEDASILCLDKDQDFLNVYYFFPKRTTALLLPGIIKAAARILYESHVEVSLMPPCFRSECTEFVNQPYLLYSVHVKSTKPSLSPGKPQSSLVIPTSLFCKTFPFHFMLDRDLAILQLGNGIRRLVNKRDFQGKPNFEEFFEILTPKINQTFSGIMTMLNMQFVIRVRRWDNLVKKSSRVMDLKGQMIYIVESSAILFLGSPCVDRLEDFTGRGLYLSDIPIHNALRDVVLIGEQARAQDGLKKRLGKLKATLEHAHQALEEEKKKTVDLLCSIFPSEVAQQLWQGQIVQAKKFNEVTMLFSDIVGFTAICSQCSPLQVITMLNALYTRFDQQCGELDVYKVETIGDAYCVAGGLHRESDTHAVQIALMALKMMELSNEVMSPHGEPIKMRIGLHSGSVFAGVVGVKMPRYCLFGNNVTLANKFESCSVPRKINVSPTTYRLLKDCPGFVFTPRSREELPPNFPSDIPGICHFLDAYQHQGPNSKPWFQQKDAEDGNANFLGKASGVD
In words: sGC-activating activity in the CHO reporter cell in vitro. Type of experiment: cell-based. Here is the method: The cellular action of the compounds according to the invention is determined at a recombinant guanylate cyclase reporter cell line, as described in F. Wunder et al., Anal. Biochem. 339, 104-112 (2005).

Experiment [1] deals with T2, soluble guanylate cyclase (sGC) (Rattus norvegicus, UniProt P20595).
T2 construct: made in house; host or cells: baculovirus/Sf9 insect cells
T2 sequence (P20595 1-619): T1 sequence (P20595 1-619)
T2 sequence (P19686 1-690 partner): T1 sequence (P19686 1-690 partner)
In words: Stimulation of sGC enzyme activity (PPi/luciferase detection). The class given is biochemical. As to conditions: sGC enzyme in vitro; for pEC50: read-out: EC50 (concentration at 50% of maximum efficacy), activating action at the sGC enzyme. The method, then: Soluble guanylate cyclase (sGC) converts on stimulation GTP into cGMP and pyrophosphate (PPi). PPi is detected with the aid of the assay described below. The signal produced in the assay increases as the reaction progresses and serves as a measure of the sGC enzyme activity under the given stimulation.
To carry out the assay, 29 μl of enzyme solution [0-10 nM soluble guanylate cyclase (prepared according to Honicka et al., J. Mol. Med. 77, 14-23 (1999)) in 50 mM TEA, 2 mM MgCl2, 0.1% BSA (fraction V), 0.005% Brij®, pH 7.5] are initially introduced into a microplate, and 1 μl of the substance to be tested (as a serially diluted solution in DMSO) is added. The mixture is incubated at room temperature for 10 min. Then 20 μl of detection mix [1.2 nM Firefly Luciferase (Photinus pyralis luciferase, Promega), 29 μM dehydroluciferin (prepared according to Bitler & McElroy, Arch. Biochem. Biophys. 72, 358 (1957)), 122 μM luciferin (Promega), 153 μM ATP (Sigma) and 0.4 mM DTT (Sigma) in 50 mM TEA, 2 mM MgCl2, 0.1% BSA (fraction V), 0.005% Brij®, pH 7.5] are added. The enzyme reaction is started by adding 20 μl of substrate solution [1.25 mM guanosine 5′-triphosphate (Sigma) in 50 mM TEA, 2 mM MgCl2, 0.1% BSA (fraction V), 0.005% Brij®, pH 7.5] and measured continuously in a luminometer. The extent of the stimulation by the substance to be tested can be determined relative to the signal of the unstimulated reaction.
The activation of heme-free guanylate cyclase is examined by addition of 25 μM of 1H-1,2,4-oxadiazolo[4,3-a]quinoxalin-1-one (ODQ) to the enzyme solution and subsequent incubation for 30 minutes and compared to the stimulation of the native enzyme.

A further experiment concerns the target T3, Heme-containing sGC (Rattus norvegicus, UniProt P20595).
T3 construct: made in house; host or cells: baculovirus/Sf9 insect cells
T3 sequence (P20595 1-619): T1 sequence (P20595 1-619)
T3 sequence (P19686 1-690 partner): T1 sequence (P19686 1-690 partner)
The experiment can be described thus: Stimulation of recombinant soluble guanylate cyclase in vitro, heme-containing enzyme. Type of experiment: biochemical. The conditions noted are these: 0 μM Example 1. The source says: Hoenicka, E. M. Becker, H. Apeler, T. Sirichoke, H. Schroeder, R. Gerzer and J.-P. Stasch, “Purified soluble guanylyl cyclase expressed in a baculovirus/Sf9 system: Stimulation by YC-1, nitric oxide, and carbon oxide”, J. Mol. Med. 77 (1999), 14-23. The heme-free guanylate cyclase is obtained by adding Tween 20 to the sample buffer (0.5% in the final concentration).
The activation of sGC by a test substance is reported as n-fold stimulation of the basal activity.

`CCC(C)C(C(=O)NCCCCC1(C(=O)O)CC1)c1ccc(CN2N=C(c3ccccc3)OCC2=O)cc1` (single isomer, unassigned; (+)) [Example 5, (+)-1-(4-{[3-methyl-2-{4-[(5-oxo-2-phenyl-5,6-dihydro-4H-1,3,4-oxadiazin-4-yl)methyl]phenyl}-pentanoyl]amino}butyl)cyclopropanecarboxylic acid]: the pIC50 with saphenous artery is 6.53. Also, at sGC, the “MEC (minimum effective concentration), sGC-activating activity in the CHO reporter cell” value (“MEC … in the CHO reporter cell” for short) was 6.5 nM. Also, in experiment [1], the “MEC (minimum effective concentration), activating action at the sGC enzyme” value (shortened to “MEC … at the sGC enzyme”) was 58 nM and the pEC50 is 5.82.

On to `CC(CCCCNC(=O)C(c1ccc(CN2N=C(c3ccccc3)OCC2=O)cc1)C1CCCC1)C(=O)O` (single isomer, unassigned; (+)) [Example 10, (+)-6-{[2-cyclopentyl-2-{4-[(5-oxo-2-phenyl-5,6-dihydro-4H-1,3,4-oxadiazin-4-yl)methyl]phenyl}-acetyl]amino}-2-methylhexanoic acid], for which the “MEC … in the CHO reporter cell” value at sGC was 100 nM.

On to `O=C(O)CC1(CCCNC(=O)C(c2ccc(CN3N=C(c4ccccc4)OCC3=O)cc2)C2CCCC2)CC1` (stereo not drawn) [Example 18, (1-{3-[(Cyclopentyl{4-[(5-oxo-2-phenyl-5,6-dihydro-4H-1,3,4-oxadiazin-4-yl)methyl]phenyl}-acetyl)amino]propyl}cyclopropyl)acetic Acid], for which the “MEC … in the CHO reporter cell” value at sGC came out at 30 nM.

Take `O=C(O)CCCCCNC(=O)C(c1ccc(CN2N=C(c3ccccc3)OCC2=O)cc1)C1CCCC1` (stereo not drawn) [Example 19, 6-[(Cyclopentyl{4-[(5-oxo-2-phenyl-5,6-dihydro-4H-1,3,4-oxadiazin-4-yl)methyl]phenyl}acetyl)-amino]hexanoic Acid]: on sGC, the “MEC … in the CHO reporter cell” value was determined as 100 nM.

On to `O=c1onc2cnc3ccccc3n12` [ODQ, 1H-1,2,4-oxadiazolo-(4,3a)-quinoxalin-1-one, reference compound], for which, at Heme-containing sGC (10 μM ODQ), the “Stimulation (n-fold) of heme-containing sGC by ODQ alone” value was found to be 3.0 n-fold.

For `CCN(CC)[N+]([O-])=NO` [DEA/NO, 2-(N,N-diethylamino)diazenolate 2-oxide, reference compound], the “Stimulation (n-fold) of heme-containing sGC by DEA/NO alone” value at Heme-containing sGC (0.1 μM DEA/NO) was determined as 22.2 n-fold.

With `CC(CCCCNC(=O)C(c1ccc(CN2N=C(c3ccccc3)OCC2=O)cc1)C1CCCC1)C(=O)O` (single isomer, unassigned; (+)) [Example 11, (+)-6-{[2-cyclopentyl-2-{4-[(5-oxo-2-phenyl-5,6-dihydro-4H-1,3,4-oxadiazin-4-yl)methyl]phenyl}-acetyl]amino}-2-methylhexanoic acid], on sGC, the “MEC … in the CHO reporter cell” value turned out to be 100 nM.

In the case of `CC(C(C(=O)NCCCCC1(C(=O)O)CC1)c1ccc(CN2N=C(c3ccccc3)OCC2=O)cc1)C(F)(F)F` (stereo not drawn) [Example 24, 1-{4-[(4,4,4-trifluoro-3-methyl-2-{4-[(5-oxo-2-phenyl-5,6-dihydro-4H-1,3,4-oxadiazin-4-yl)methyl]-phenyl}-butanoyl)amino]butyl}cyclopropanecarboxylic acid], on sGC, the “MEC … in the CHO reporter cell” value is 1 nM. In experiment [1], the “MEC … at the sGC enzyme” value is 5.5 nM and the pEC50 was 6.74.

As to `O=C(NCCCCC1(C(=O)O)CC1)C(c1ccc(Cn2nc(-c3ccccc3)ccc2=O)cc1)C1CCCC1` (stereo not drawn) [Example 20], the negative-log IC50 (pIC50) with saphenous artery is 7.15. In addition, the “MEC … in the CHO reporter cell” value at sGC is on record as 3 nM. Moreover, in experiment [1], the “MEC … at the sGC enzyme” value stood at 13 nM and the pEC50 was 6.19.

With `O=C(NC/C=C/CC1(C(=O)O)CC1)C(c1ccc(CN2N=C(c3ccccc3)OCC2=O)cc1)C1CCCC1` (single isomer, unassigned; (-)) [Example 15], at sGC, the “MEC … in the CHO reporter cell” value was determined as 20 nM.
